Test results from ChEMBL document CHEMBL4196084 (Eur J Med Chem, 2018).
Calls of active or inactive are those of the source. The rule behind the calls is not given here.

Experiments:
[1] = Solubility of the compound in PBS buffer; type: physicochemical
Cholinesterase = Cholinesterase (Homo sapiens, UniProt P06276)
Description: Inhibition of human plasmatic BuChE using butyrylthiocholine iodide as substrate preincubated for 5 mins followed by substrate addition measured at 2 mins time interval by Ellman's method

Acetylcholinesterase [2] = molecular target: T1, Acetylcholinesterase (Homo sapiens, UniProt P22303)
Description: Inhibition of human erythrocyte AChE using acetylthiocholine iodide as substrate preincubated for 5 mins followed by substrate addition measured at 2 mins time interval by Ellman's method

[3] = molecular target: T2, Muscarinic acetylcholine receptor M1 (Homo sapiens, UniProt P11229); type: functional, cell-based, CHO
T2 sequence (P11229 whole entry): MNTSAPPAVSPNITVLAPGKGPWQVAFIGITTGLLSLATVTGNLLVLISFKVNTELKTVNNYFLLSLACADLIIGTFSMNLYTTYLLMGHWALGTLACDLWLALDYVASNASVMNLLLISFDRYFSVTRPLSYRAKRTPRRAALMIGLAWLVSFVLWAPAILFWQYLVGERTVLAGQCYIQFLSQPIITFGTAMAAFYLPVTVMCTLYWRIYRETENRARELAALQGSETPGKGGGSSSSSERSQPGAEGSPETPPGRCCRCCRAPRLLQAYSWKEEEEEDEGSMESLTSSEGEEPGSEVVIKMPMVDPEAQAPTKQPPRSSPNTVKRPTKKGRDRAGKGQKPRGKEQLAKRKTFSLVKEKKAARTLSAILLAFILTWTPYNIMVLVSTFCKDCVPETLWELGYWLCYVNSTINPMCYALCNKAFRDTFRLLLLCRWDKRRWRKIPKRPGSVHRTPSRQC

in vitro [4] = conditions: PAMPA
HepG2 = assay: cells; type: ADME, cell-based; conditions: Homo sapiens, HepG2, 24 h
Description: Cytotoxicity against human HepG2 cells assessed as reduction in cell viability after 24 hrs by MTT assay

[5] = molecular target: T3, Muscarinic acetylcholine receptor M1 (Homo sapiens) (UniProt P11229); assay: Positive allosteric modulation of human M1 mAChR expressed in CHO cells assessed as increase in oxotremorine M-stimulated calcium influx preincubated for 10 mins followed by oxotremorine M addition by Fluo-4 NW dye based fluorescence assay; type: functional, cell-based
T3 sequence (whole entry): T2 sequence (P11229 whole entry)

in vitro [6] = conditions: PAMPA; remark: listed apart in the source
Acetylcholinesterase [7] = molecular target: T1, Acetylcholinesterase; assay: Mixed type inhibition of human erythrocyte AChE assessed as enzyme-substrate-inhibitor complex using varying levels of acetylthiocholine iodide as substrate preincubated for 5 mins followed by substrate addition by Lineweaver-Burk plot analysis
Acetylcholinesterase [8] = molecular target: T1, Acetylcholinesterase; assay: Mixed type inhibition of human erythrocyte AChE assessed as enzyme-inhibitor complex using varying levels of acetylthiocholine iodide as substrate preincubated for 5 mins followed by substrate addition by Lineweaver-Burk plot analysis

T1 sequence (P22303 whole entry): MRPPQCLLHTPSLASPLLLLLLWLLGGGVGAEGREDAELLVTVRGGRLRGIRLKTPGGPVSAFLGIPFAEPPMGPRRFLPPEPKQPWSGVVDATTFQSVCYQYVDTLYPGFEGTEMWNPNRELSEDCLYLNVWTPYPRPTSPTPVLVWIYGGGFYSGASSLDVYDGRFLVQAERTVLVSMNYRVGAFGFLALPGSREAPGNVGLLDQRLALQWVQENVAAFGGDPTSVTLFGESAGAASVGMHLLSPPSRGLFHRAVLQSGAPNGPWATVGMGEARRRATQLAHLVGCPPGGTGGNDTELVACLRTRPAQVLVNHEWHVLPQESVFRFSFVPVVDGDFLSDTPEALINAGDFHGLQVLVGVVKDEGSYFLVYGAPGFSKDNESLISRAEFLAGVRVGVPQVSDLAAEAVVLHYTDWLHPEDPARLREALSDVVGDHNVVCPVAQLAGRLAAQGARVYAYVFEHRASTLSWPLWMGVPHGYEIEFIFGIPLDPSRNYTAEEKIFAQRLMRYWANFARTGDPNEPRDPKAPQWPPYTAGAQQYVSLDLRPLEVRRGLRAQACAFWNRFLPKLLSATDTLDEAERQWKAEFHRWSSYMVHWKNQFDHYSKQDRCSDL
Cholinesterase, sequence (P06276 whole entry): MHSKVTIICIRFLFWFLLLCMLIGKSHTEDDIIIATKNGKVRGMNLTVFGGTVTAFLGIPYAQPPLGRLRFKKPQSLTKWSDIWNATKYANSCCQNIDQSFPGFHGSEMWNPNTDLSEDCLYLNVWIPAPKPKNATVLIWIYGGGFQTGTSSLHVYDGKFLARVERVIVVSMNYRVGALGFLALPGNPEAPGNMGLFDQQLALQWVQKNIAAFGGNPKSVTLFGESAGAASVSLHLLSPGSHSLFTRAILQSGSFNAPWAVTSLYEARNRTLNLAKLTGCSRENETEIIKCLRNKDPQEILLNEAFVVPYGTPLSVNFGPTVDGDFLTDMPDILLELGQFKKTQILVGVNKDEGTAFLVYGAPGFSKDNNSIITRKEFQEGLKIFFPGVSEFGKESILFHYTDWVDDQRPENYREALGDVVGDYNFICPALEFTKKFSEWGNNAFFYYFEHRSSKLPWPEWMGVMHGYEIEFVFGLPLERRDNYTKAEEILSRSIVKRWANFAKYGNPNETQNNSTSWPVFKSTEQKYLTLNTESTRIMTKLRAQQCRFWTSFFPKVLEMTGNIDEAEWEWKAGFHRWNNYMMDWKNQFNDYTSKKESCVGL

## COc1ccc(Cn2cc(C(=O)NCCCNc3c4c(nc5ccccc35)CCCC4)c(=O)c3ccccc32)cc1
[1]
  solubility: Insoluble
Cholinesterase
  IC50: 0.674 µM
Acetylcholinesterase [2]
  IC50: 0.129 µM
[3]
  IC50: 0.455 µM
In vitro [4]
  Papp at 100 µM: 2.6 ×10⁻⁶ cm/s
HepG2
  IC50: 2.17 µM

## COc1ccc(Cn2cc(C(=O)NCCCCCCCNc3c4c(nc5cc(Cl)ccc35)CCCC4)c(=O)c3ccccc32)cc1
[1]
  solubility: Insoluble
Cholinesterase
  IC50: 3.34 µM
Acetylcholinesterase [2]
  IC50: 0.0517 µM
[3]
  IC50: 5.35 µM
In vitro [4]
  Papp at 100 µM: 2.35 ×10⁻⁶ cm/s
HepG2
  IC50: > 40 µM

## COc1ccc2nc3c(c(N)c2c1)CCCC3
[3]
  IC50: 3.71 µM
HepG2
  IC50: 44.4 µM

## COc1ccc(Cn2cc(C(=O)NCCCNc3c4c(nc5ccc(OC)cc35)CCCC4)c(=O)c3ccccc32)cc1
[1]
  solubility: Insoluble
Cholinesterase
  IC50: 1.03 µM
Acetylcholinesterase [2]
  IC50: 2.24 µM
[3]
  IC50: 2.48 µM
In vitro [4]
  Papp at 100 µM: 4.85 ×10⁻⁶ cm/s
HepG2
  IC50: 2.42 µM

## COc1ccc(Cn2cc(C(=O)NCCCCCCNc3c4c(nc5ccc(OC)cc35)CCCC4)c(=O)c3ccccc32)cc1
Cholinesterase
  IC50: 16.6 µM
Acetylcholinesterase [2]
  IC50: 10 µM
[3]
  IC50: 8.61 µM

## COc1ccc(Cn2cc(C(=O)NCCCCNc3c4c(nc5cc(Cl)ccc35)CCCC4)c(=O)c3ccccc32)cc1
Cholinesterase
  IC50: 3.12 µM
Acetylcholinesterase [2]
  IC50: 0.0896 µM
[3]
  IC50: 4.11 µM

## COc1ccc(Cn2cc(C(=O)O)c(=O)c3ccccc32)cc1
[5]
  Activity: Active
Cholinesterase
  IC50: > 1000 µM
Acetylcholinesterase [2]
  IC50: > 1000 µM

## COc1ccc(Cn2cc(C(=O)NCCCCNc3c4c(nc5ccc(OC)cc35)CCCC4)c(=O)c3ccccc32)cc1
Cholinesterase
  IC50: 1.08 µM
Acetylcholinesterase [2]
  IC50: 9.5 µM
[3]
  IC50: 1.07 µM

## Nc1c2c(nc3cc(Cl)ccc13)CCCC2
[3]
  IC50: 6.09 µM
HepG2
  IC50: 43.2 µM

## C[C@]12CC[C@H]3[C@@H](CCC4=CC(=O)CC[C@@]43C)[C@@H]1CC[C@@H]2O [TESTOSTERONE]
In vitro [6]
  Papp at 100 µM: 11.6 ×10⁻⁶ cm/s
In vitro [4]
  Papp at 100 µM: 8.5 ×10⁻⁶ cm/s

## COc1ccc(Cn2cc(C(=O)NCCNc3c4c(nc5ccccc35)CCCC4)c(=O)c3ccccc32)cc1
[1]
  solubility: Insoluble
Cholinesterase
  IC50: 0.0589 µM
Acetylcholinesterase [2]
  IC50: 0.187 µM
[3]
  IC50: 0.658 µM
In vitro [4]
  Papp at 100 µM: 1.8 ×10⁻⁶ cm/s
HepG2
  IC50: 1.44 µM

## COc1ccc(Cn2cc(C(=O)NCCCCCCNc3c4c(nc5cc(Cl)ccc35)CCCC4)c(=O)c3ccccc32)cc1
Cholinesterase
  IC50: 13.4 µM
Acetylcholinesterase [2]
  IC50: 0.0941 µM
[3]
  IC50: 2.78 µM

## COc1ccc(Cn2cc(C(=O)NCCCCCCCNc3c4c(nc5ccc(OC)cc35)CCCC4)c(=O)c3ccccc32)cc1
[1]
  solubility: Insoluble
Cholinesterase
  IC50: 49.3 µM
Acetylcholinesterase [2]
  IC50: 1.53 µM
[3]
  IC50: 11.4 µM
In vitro [4]
  Papp at 100 µM: 9.25 ×10⁻⁶ cm/s
HepG2
  IC50: 0.6 µM

## CN(C)CCCN1c2ccccc2Sc2ccccc21 [PROMAZINE]
In vitro [6]
  Papp at 100 µM: 9.4 ×10⁻⁶ cm/s
In vitro [4]
  Papp at 100 µM: 6.6 ×10⁻⁶ cm/s

## CC(=O)[C@H]1CC[C@H]2[C@@H]3CCC4=CC(=O)CC[C@]4(C)[C@H]3CC[C@]12C [PROGESTERONE]
In vitro [6]
  Papp at 100 µM: 10.8 ×10⁻⁶ cm/s
In vitro [4]
  Papp at 100 µM: 8.6 ×10⁻⁶ cm/s

## COc1ccc(Cn2cc(C(=O)NCCCCCNc3c4c(nc5ccccc35)CCCC4)c(=O)c3ccccc32)cc1
Cholinesterase
  IC50: 0.823 µM
Acetylcholinesterase [2]
  IC50: 0.293 µM
[3]
  IC50: 1.48 µM

## COc1ccc(Cn2cc(C(=O)NCCCCNc3c4c(nc5ccccc35)CCCC4)c(=O)c3ccccc32)cc1
Cholinesterase
  IC50: 1.32 µM
Acetylcholinesterase [2]
  IC50: 0.491 µM
[3]
  IC50: 1.59 µM

## COc1ccc(Cn2cc(C(=O)NCCCCCCCNc3c4c(nc5ccccc35)CCCC4)c(=O)c3ccccc32)cc1
Cholinesterase
  IC50: 1.19 µM
Acetylcholinesterase [2]
  IC50: 0.194 µM
[3]
  IC50: 2.14 µM

## COc1ccc(Cn2cc(C(=O)NCCNc3c4c(nc5ccc(OC)cc35)CCCC4)c(=O)c3ccccc32)cc1
[1]
  solubility: Insoluble
Cholinesterase
  IC50: 0.408 µM
Acetylcholinesterase [2]
  IC50: 2.64 µM
[3]
  IC50: 3.71 µM
In vitro [4]
  Papp at 100 µM: 1.65 ×10⁻⁶ cm/s
HepG2
  IC50: 1.63 µM

## COc1ccc(Cn2cc(C(=O)NCCCCCCCCNc3c4c(nc5ccc(OC)cc35)CCCC4)c(=O)c3ccccc32)cc1
Cholinesterase
  IC50: 12.4 µM
Acetylcholinesterase [2]
  IC50: 74.3 µM
[3]
  IC50: 7.86 µM

## COc1ccc(Cn2cc(C(=O)NCCCCCNc3c4c(nc5ccc(OC)cc35)CCCC4)c(=O)c3ccccc32)cc1
Cholinesterase
  IC50: 6.16 µM
Acetylcholinesterase [2]
  IC50: 8.02 µM
[3]
  IC50: 1.37 µM

## COc1ccc(Cn2cc(C(=O)NCCCCCCCCNc3c4c(nc5cc(Cl)ccc35)CCCC4)c(=O)c3ccccc32)cc1
Cholinesterase
  IC50: 37.2 µM
Acetylcholinesterase [2]
  IC50: 0.119 µM
[3]
  IC50: 9.45 µM

## COc1ccc(Cn2cc(C(=O)NCCCCCNc3c4c(nc5cc(Cl)ccc35)CCCC4)c(=O)c3ccccc32)cc1
Cholinesterase
  IC50: 7.74 µM
Acetylcholinesterase [2]
  IC50: 0.18 µM
[3]
  IC50: 3.27 µM

## COc1ccc(Cn2cc(C(=O)NCCNc3c4c(nc5cc(Cl)ccc35)CCCC4)c(=O)c3ccccc32)cc1
[1]
  solubility: Insoluble
Cholinesterase
  IC50: 0.0833 µM
Acetylcholinesterase [2]
  IC50: 0.0745 µM
[3]
  IC50: 4.23 µM
In vitro [4]
  Papp at 100 µM: 2.37 ×10⁻⁶ cm/s
HepG2
  IC50: 3.48 µM

## COc1ccc(Cn2cc(C(=O)NCCCNc3c4c(nc5cc(Cl)ccc35)CCCC4)c(=O)c3ccccc32)cc1
[1]
  solubility: Insoluble
Cholinesterase
  IC50: 3.72 µM
Acetylcholinesterase [2]
  IC50: 0.0419 µM
[3]
  IC50: 4.01 µM
In vitro [4]
  Papp at 100 µM: 3.08 ×10⁻⁶ cm/s
Acetylcholinesterase [7]
  Ki: 0.00157 µM
Acetylcholinesterase [8]
  Ki: 0.00328 µM
HepG2
  IC50: 4.99 µM

## COc1ccc(Cn2cc(C(=O)NCCCCCCCCNc3c4c(nc5ccccc35)CCCC4)c(=O)c3ccccc32)cc1
Cholinesterase
  IC50: 1.28 µM
Acetylcholinesterase [2]
  IC50: 0.768 µM
[3]
  IC50: 2.05 µM

## COc1ccc(Cn2cc(C(=O)NCCCCCCNc3c4c(nc5ccccc35)CCCC4)c(=O)c3ccccc32)cc1
[1]
  solubility: Insoluble
Cholinesterase
  IC50: 0.28 µM
Acetylcholinesterase [2]
  IC50: 0.194 µM
[3]
  IC50: 1.49 µM
In vitro [4]
  Papp at 100 µM: 2.28 ×10⁻⁶ cm/s
HepG2
  IC50: 2.72 µM
